For assay [1], the system named is RelA^−/− MEFs. Nature of the assay: Survival assay, TNF-α and CHX, RelA^−/− MEFs. The class given is cell-based, mouse. To be noted: CHX 0.1 μg/ml.
Assay [2] concerns the target T1, cathepsin B (Mus musculus, UniProt P10605).
T1 construct: endogenous in cells; host or cells: RelA-/- or RelA+/+ MEFs (retrovirally transduced with GFP, RelA, Spi2A or antisense Spi2A)
Nature of the assay: Cathepsin B activity in crude cytoplasmic extracts, RelA^−/− MEFs. The format is cell-based. How it is done:
Survival Assays. Although RelA^−/− MEFs are markedly more sensitive to TNF-α compared to RelA^+/+ MEFs, low levels of CHX (0.1 μg/ml) were used in the survival assays. This was to suppress any protective activity of constitutively active non-RelA NF-κB molecules that are present in RelA^−/− MEFs (FIG. 4). Thus, RelA^−/− MEFs were treated with CHX and TNF-α (R&D) and the number of live GFP-positive adherent cells was counted by flow cytometry after 16 h, if not indicated otherwise. Live cells were defined as those that excluded propidium iodide (PI-negative) and had the appropriate size, as defined by forward and side scatter characteristics (Coligan et al., 1995). For RelA^+/+ MEFs, TNF-α-cytotoxicity was determined after 16 h with CHX (10 μg/ml), if not indicated otherwise. Cathepsin B activity was inhibited by a 1 h pre-treatment of MEFs with CA-074 Me (30 μM) (Peptide Institute). […] RelA^−/− MEFs were treated with (10-50 μM) sphingosine (Calbiochem) and the number of live GFP-positive adherent cells was counted by flow cytometry after 2 h.
Death effector assays. Death effector pathways were induced in […] MEFs by treatment TNF-α (0.2 ng/ml) and CHX (0.1 μg/ml). […] Protein concentration was determined by Lowry assay (DC-protein assay kit, Biorad). […]
Colorimetric assays for capases were performed in reaction buffer (50 mM HEPES, pH 7.4, 100 mM NaCl, 10 mM DTT, 1 mM EDTA, 10% glycerol, 0.1% CHAPS) at 37° C. on crude cytoplasmic extracts using p-Nitoaniline (pNA)-labeled substrates (Calbiochem) specific for caspases 3 and 7 (Ac-DEVD-pNA), caspase 8 (Ac-IETD-pNA), caspase 9 (Ac-LEHD-pNA), each at 0.2 mM. Specific activity was determined by subtracting the apparent activity detected after 1 h pre-incubation of extract with the pan-caspase inhibitor Z-VAD.fmk at 50 μM (ICN Biomedicals Inc), then normalizing for the amount of protein. […] Specific activity was determined by subtracting the apparent activity detected after 30 min pre-incubation of extract at 37° C. with the cathespin B inhibitor CA-074 Me at 30 μM (Peptide Institute) then normalizing for the amount of protein.

Assay [3] concerns NIH3T3 cells. Nature of the assay: TNF-α death assays, NIH3T3 cells. To be noted: Z-VAD.fmk 50 μM, TNF-α 10 ng/ml, 16 h; FIG. 9A. The class given is cell-based. How it is done: (§1) TNF-α death assays. NIH3T3 cells were transduced with MIGR1 retrovirus (Zhang and Ren, 1998) encoding either GFP alone, or Spi2A in the forward (sense) or reverse (antisense) orientation and stable clones generated, as described previously (Liu et al., 2003). Cells were treated with TNF-α (R&D) and after 16 h the number of live GFP-positive adherent cells were counted by flow cytometry (Liu et al., 2003). Live cells were defined as those that excluded propidium iodide (PI-negative) and had the appropriate size, as defined by forward and side light scatter characteristics. Caspase activity was inhibited by pre-treatment of cells or extracts for 1 h with Z-VAD.fmk (ICN Biomedicals Inc; 50 μM). […] In anti-sense experiments the level of Spi2A mRNA was quantitated by real-time PCR using primers and probes specific for Spi2A (Inglis et al., 1991) and cyclofilin A control mRNA (Medhurst et al., 2000), 4 h after treatment with Z-VAD.fmk ([…]) and TNF-α (10 ng/ml), as described previously (Liu et al., 2003).

Assay [4] has as its system caspase activity. Nature of the assay: Caspase activity enzyme assay, NIH3T3 cells. The format is cell-based. To be noted: Z-VAD.fmk 50 μM, 1 h pre-treatment; verified by enzyme assay. As for the experimental part:
as §1

Residues, ends and D or L forms follow the SMILES beside them. *: point of attachment. Cbz = O=C(OCc1ccccc1)*; CH2F = FC*

T1 sequence (P10605 80-333): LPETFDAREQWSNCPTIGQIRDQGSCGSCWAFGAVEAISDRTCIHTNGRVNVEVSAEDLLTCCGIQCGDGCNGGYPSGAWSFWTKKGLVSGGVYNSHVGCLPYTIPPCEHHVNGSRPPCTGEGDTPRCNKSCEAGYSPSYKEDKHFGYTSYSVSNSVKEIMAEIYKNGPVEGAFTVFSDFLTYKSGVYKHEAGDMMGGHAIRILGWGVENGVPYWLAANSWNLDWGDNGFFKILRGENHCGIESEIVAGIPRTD

Turning to “RelA: human RelA (p65) cDNA expressed from MIGR1 retrovirus in RelA^−/− MEFs [reference compound]”, the “Percentage survival after TNF-α and CHX, retrovirally transduced cells vs GFP” value in assay [1] (16 h, FIG. 1B, 2B) is “complete protection”. Also, in assay [2] (TNF-α 0.2 ng/ml, CHX 0.1 μg/ml, FIG. 1C, 7A), the “Cytosolic cathepsin B activity after TNF-α, retrovirally transduced cells” value was “extinguished”.

`COC(=O)C[C@H](NC(=O)[C@H](C)NC(=O)[C@@H](NC(=O)OCc1ccccc1)C(C)C)C(=O)CF` [Z-VAD.fmk, reference compound] (Cbz-Val-Ala-Asp(OMe)-CH2F): the “Sensitization to PCD by TNF-α (percentage survival)” value in assay [3] is given as “sensitized”. Moreover, the “Inhibition of caspase activity” value in assay [4] is reported as “complete inhibition”.

In the case of `CCCNC(=O)[C@H]1O[C@@H]1C(=O)N[C@H](C(=O)N1CCC[C@H]1C(=O)OC)[C@@H](C)CC` [CA-074 Me, reference compound], the “Protection from TNF-α-induced death (percentage survival)” value in assay [1] (CA-074 Me 30 μM, TNF-α 0.5 ng/ml, FIG. 1A) was “protected”. Besides, in assay [2] (CA-074 Me 30 μM, 1 h pre-treatment, verified by enzyme assay), the “Inhibition of cathepsin B activity in MEFs” value is “complete inhibition”.

The values are drawn from patent publication US20090324700A1, “METHODS AND COMPOSITIONS FOR THE INHIBITION OF CATHEPSINS” (priority 2003, published 2009).
